Literature values in patent publication US7842677B2, “Synthetic ganglioside derivatives and compositions thereof” (Seneb Biosciences, Inc., priority 2001, dated 2010).

Tested on: murine neuroblastoma cells

Substance: ganglioside GM3
- growth of neuroblastoma cells (in words): inhibit the growth
